Converted amounts (≈) assume the structure as drawn.
Assay: Solubility at pH 6.8
Assay type: physicochemical
Conditions: pH 6.8, aqueous buffer, thermodynamic from solid; read-out: solubility
Summary of the method: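 Solubility was measured at pH 6.8 following the cited Zhou et al. (2007) procedure.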

SMILES	solubility [µg/mL]
Cc1nn(C)cc1-n1c(=O)n(C)c2cnc3ccc(-c4cncc(C(C)O)c4)cc3c21 (racemic) [Example 217, (rac)-1-(1,3-Dimethyl-1H-pyrazol-4-yl)-8-[5-(1-hydroxy-ethyl)-pyridin-3-yl]-3-methyl-1,3-dihydro-imidazo[4,5-c]quinolin-2-one]	414 (≈ 999 µM)
COc1ccc(-c2ccc3ncc4c(c3c2)n(-c2ccnn2C)c(=O)n4C)cn1 [Example 2.2, 8-(6-Methoxy-pyridin-3-yl)-3-methyl-1-(2-methyl-2H-pyrazol-3-yl)-1,3-dihydro-imidazo[4,5-c]quinolin-2-one]	4 (≈ 10.4 µM)
Cc1nn(CC(=O)N(C)C)c(C)c1-n1c(=O)n(C)c2cnc3ccc(-c4ccc(-n5cccn5)cc4)cc3c21 [Example 51.4, 2-{3,5-Dimethyl-4-[3-methyl-2-oxo-8-(4-pyrazol-1-yl-phenyl)-2,3-dihydro-imidazo[4,5-c]quinolin-1-yl]pyrazol-1-yl}-N,N-dimethyl-acetamide]	11 (≈ 21.1 µM)
Cc1ncc(-c2ccc3ncc4c(c3c2)n(-c2cn(C)nc2C)c(=O)n4C)cc1N(C)S(C)(=O)=O [Example 75, N-{5-[1-(1,3-Dimethyl-1H-pyrazol-4-yl)-3-methyl-2-oxo-2,3-dihydro-1H-imidazo[4,5-c]quinolin-8-yl]-2-methyl-pyridin-3-yl}-N-methyl-methanesulfonamide]	35 (≈ 71.2 µM)
CCNc1cc(-c2ccc3ncc4c(c3c2)n(-c2c(C)nn(CCOC)c2C)c(=O)n4C)cnc1C [Example 87.4, 8-(5-Ethylamino-6-methyl-pyridin-3-yl)-1-[1-(2-methoxy-ethyl)-3,5-dimethyl-1H-pyrazol-4-yl]-3-methyl-1,3-dihydro-imidazo[4,5-c]quinolin-2-one]	> 486
Cc1ncc(-c2ccc3ncc4c(c3c2)n(-c2cn(C)nc2C)c(=O)n4C)cc1N [Example 88.2, 8-(5-Amino-6-methyl-pyridin-3-yl)-1-(1,3-dimethyl-1H-pyrazol-4-yl)-3-methyl-1,3-dihydro-imidazo[4,5-c]quinolin-2-one]	136 (≈ 340 µM)
CCNc1cncc(-c2ccc3ncc4c(c3c2)n(-c2cn(C)nc2C)c(=O)n4C)c1 [Example 122, 1-(1,3-Dimethyl-1H-pyrazol-4-yl)-8-(5-ethylamino-pyridin-3-yl)-3-methyl-1,3-dihydro-imidazo[4,5-c]quinolin-2-one]	5 (≈ 12.1 µM)
CCOc1ccc(-c2ccc3ncc4c(c3c2)n(-c2cn(CCOC)nc2C)c(=O)n4C)cn1 [Example 131, 8-(6-Ethoxy-pyridin-3-yl)-1-[1-(2-methoxy-ethyl)-3-methyl-1H-pyrazol-4-yl]-3-methyl-1,3-dihydro-imidazo[4,5-c]quinolin-2-one]	4 (≈ 8.72 µM)
Cc1nn(C)cc1-n1c(=O)n(C)c2cnc3ccc(-c4cnc(Cl)c(N)c4)cc3c21 [Example 152.2, 8-(5-Amino-6-chloro-pyridin-3-yl)-1-(1,3-dimethyl-1H-pyrazol-4-yl)-3-methyl-1,3-dihydro-imidazo[4,5-c]quinolin-2-one]	4 (≈ 9.53 µM)
CCNc1cc(-c2ccc3ncc4c(c3c2)n(-c2cn(C)nc2C)c(=O)n4C)cnc1COC [Example 156, 1-(1,3-Dimethyl-1H-pyrazol-4-yl)-8-(5-ethylamino-6-methoxymethyl-pyridin-3-yl)-3-methyl-1,3-dihydro-imidazo[4,5-c]quinolin-2-one]	> 458
CNc1cc(-c2ccc3ncc4c(c3c2)n(-c2cn(C)nc2C)c(=O)n4C)cnc1CO [Example 158.1, 1-(1,3-Dimethyl-1H-pyrazol-4-yl)-8-(6-hydroxymethyl-5-methylamino-pyridin-3-yl)-3-methyl-1,3-dihydro-imidazo[4,5-c]quinolin-2-one]	> 429
CNc1cc(-c2ccc3ncc4c(c3c2)n(-c2cn(C)nc2Cl)c(=O)n4C)cnc1COC [Example 160.1, 1-(3-Chloro-1-methyl-1H-pyrazol-4-yl)-8-(6-methoxymethyl-5-methylamino-pyridin-3-yl)-3-methyl-1,3-dihydro-imidazo[4,5-c]quinolin-2-one]	32 (≈ 69 µM)
CNc1ncc(-c2ccc3ncc4c(c3c2)n(-c2cn(C(C)C)nc2C)c(=O)n4C)cc1CO [Example 171, 8-(5-Hydroxymethyl-6-methylamino-pyridin-3-yl)-1-(1-isopropyl-3-methyl-1H-pyrazol-4-yl)-3-methyl-1,3-dihydro-imidazo[4,5-c]quinolin-2-one]	5 (≈ 10.9 µM)
Cc1nn(C)cc1-n1c(=O)n(C)c2cnc3ccc(-c4cncc(NC(C)C)c4)cc3c21 [Example 177.1, 1-(1,3-Dimethyl-1H-pyrazol-4-yl)-8-(5-isopropylamino-pyridin-3-yl)-3-methyl-1,3-dihydro-imidazo[4,5-c]quinolin-2-one]	169 (≈ 395 µM)
CCn1cc(-n2c(=O)n(C)c3cnc4ccc(-c5cncc(NC)c5)cc4c32)c(C)n1 [Example 180.1, 1-(1-Ethyl-3-methyl-1H-pyrazol-4-yl)-3-methyl-8-(5-methylamino-pyridin-3-yl)-1,3-dihydro-imidazo[4,5-c]quinolin-2-one]	11 (≈ 26.6 µM)
Cc1nn(C)cc1-n1c(=O)n(C)c2cnc3ccc(-c4cncc(OC(CF)CF)c4)cc3c21 [Example 182, 1-(1,3-Dimethyl-1H-pyrazol-4-yl)-8-[5-(2-fluoro-1-fluoromethyl-ethoxy)-pyridin-3-yl]-3-methyl-1,3-dihydro-imidazo[4,5-c]quinolin-2-one]	56 (≈ 121 µM)
COc1cc(-c2ccc3ncc4c(c3c2)n(-c2cn(C(C)C)nc2C)c(=O)n4C)cnc1CO [Example 194.1, 8-(6-Hydroxymethyl-5-methoxy-pyridin-3-yl)-1-(1-isopropyl-3-methyl-1H-pyrazol-4-yl)-3-methyl-1,3-dihydro-imidazo[4,5-c]quinolin-2-one]	129 (≈ 281 µM)
COc1cc(-c2ccc3ncc4c(c3c2)n(-c2cn(C)nc2Cl)c(=O)n4C)cnc1CO [Example 194.2, 1-(3-chloro-1-methyl-1H-pyrazol-4-yl)-8-(6-hydroxymethyl-5-methoxy-pyridin-3-yl)-3-methyl-1,3-dihydro-imidazo[4,5-c]quinolin-2-one]	94 (≈ 208 µM)
CCOCc1ncc(-c2ccc3ncc4c(c3c2)n(-c2cn(C)nc2Cl)c(=O)n4C)cc1OC [Example 196.1, 1-(3-Chloro-1-methyl-1H-pyrazol-4-yl)-8-(6-ethoxymethyl-5-methoxy-pyridin-3-yl)-3-methyl-1,3-dihydro-imidazo[4,5-c]quinolin-2-one]	44 (≈ 91.9 µM)
COc1cc(-c2ccc3ncc4c(c3c2)n(-c2cn(CCO)nc2C)c(=O)n4C)cnc1C [Example 211.1, 1-[1-(2-Hydroxy-ethyl)-3-methyl-1H-pyrazol-4-yl]-8-(5-methoxy-6-methyl-pyridin-3-yl)-3-methyl-1,3-dihydro-imidazo[4,5-c]quinolin-2-one]	3 (≈ 6.75 µM)
COc1ncc(-c2ccc3ncc4c(c3c2)n(-c2cn(C(C)C)nc2C)c(=O)n4C)c(OC)n1 [Example 234.3, 8-(2,4-Dimethoxy-pyrimidin-5-yl)-1-(1-isopropyl-3-methyl-1H-pyrazol-4-yl)-3-methyl-1,3-dihydro-imidazo[4,5-c]quinolin-2-one]	13 (≈ 28.3 µM)
Cc1nn(C)cc1-n1c(=O)n(C)c2cnc3ccc(-c4cnc(CO)c(Cl)c4)cc3c21 [Example 238, 8-(5-Chloro-6-hydroxymethyl-pyridin-3-yl)-1-(1,3-dimethyl-1H-pyrazol-4-yl)-3-methyl-1,3-dihydro-imidazo[4,5-c]quinolin-2-one]	8 (≈ 18.4 µM)

— patent publication US20140005163A1 (NOVARTIS AG, priority 2010, published 2014)
